The values below are quoted from earlier work in patent US20130183383A1, “PHARMACEUTICAL COMPOSITIONS FOR CALANOLIDES, THEIR DERIVATIVES AND ANALOGUES, AND PROCESS FOR PRODUCING THE SAME” (Craun Research SDN BHD, priority 2010, published 2013).

For the data set the following is noted: soft gelatin capsules containing 100 mg (+)-calanolide A in oil-based / sesame oil-based vehicle.

Structures are written as SMILES.

Regarding `CCCc1cc(=O)oc2c3c(c4c(c12)OC(C)(C)C=C4)O[C@H](C)[C@@H](C)[C@@H]3O` [calanolide A, (+)-Calanolide A], the Bioavailability entry was “poor bioavailability”.
